According to the NIST ThermoML archive (doi:10.1016/j.tca.2018.05.015):
± gives the expanded uncertainty stated by the source.

Settings: for mass density: 101.33 kPa, X-ray diffraction; for Triple point temperature: DSC

CC(C)(C#N)N=NC(C)(C)C#N [2,2'-dimethyl-2,2'-azodipropionitrile]
mass density (346.15 K, Crystal 2): 1100 ± 22 kg/m3
mass density (356.15 K, Crystal 1): 1096 ± 22 kg/m3
Triple point temperature (Crystal 1): 373.15 ± 5 K
Triple point temperature (Crystal 2): 351.15 ± 5 K
